Experimental data reported in US12077503B2, “Substituted cyclic amides and their use as herbicides” (FMC CORPORATION, priority 2015, dated 2024).

Columns and labels:
Type in all cases: in vivo
[1] = tested on: Galium (catchweed bedstraw, Galium aparine); assay: Test A postemergence; details: Galium, post-emergence, 240 h, 125 g ai/ha, postemergence; visual injury after approximately 10 d; 0 to 100 scale (0 no effect, 100 complete control); read-out: Plant response rating, Galium
Procedure, shortened: (§1)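 Each rating is a visual injury score from 0 to 100 given about 10 d after treatment, judged against untreated controls kept alongside in the greenhouse. In loam soil–sand blend, seeds got a preemergence directed soil spray, while postemergence plants were 2 to 10 cm tall at spraying.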

[2] = tested on: wheat (Triticum aestivum); assay: Test A postemergence; details: Triticum aestivum, post-emergence, 240 h, 125 g ai/ha, postemergence; visual injury after approximately 10 d; 0 to 100 scale (0 no effect, 100 complete control); read-out: Plant response rating, Wheat
Procedure, shortened: as §1

[3] = tested on: barnyardgrass (Echinochloa crus-galli); assay: Test A postemergence; details: Echinochloa crus-galli, post-emergence, 240 h, 125 g ai/ha, postemergence; visual injury after approximately 10 d; 0 to 100 scale (0 no effect, 100 complete control); read-out: Plant response rating, Barnyardgrass
Procedure, shortened: as §1

[4] = tested on: giant foxtail (Setaria faberii); assay: Test A postemergence; details: Setaria faberi, post-emergence, 240 h, 125 g ai/ha, postemergence; visual injury after approximately 10 d; 0 to 100 scale (0 no effect, 100 complete control); read-out: Plant response rating, Foxtail, Giant
Procedure, shortened: as §1

[5] = tested on: ragweed (common ragweed, Ambrosia elatior); assay: Test A preemergence; details: Ambrosia artemisiifolia, pre-emergence, 240 h, preemergence, read-out: Plant response rating, Ragweed; for pest or weed control at 125 g/ha: 125 g ai/ha, visual rating after approx. 10 d, 0 to 100 scale where 0 is no effect and 100 is complete control; for pest or weed control at 500 g/ha: 500 g ai/ha, 0 to 100 scale, 0 = no effect, 100 = complete control
Procedure, shortened: as §1

Kochia (Kochia scoparia) = assay: Test A preemergence; details: Bassia scoparia, pre-emergence, 240 h, preemergence, read-out: Plant response rating, Kochia; for pest or weed control at 125 g/ha: 125 g ai/ha, visual rating after approx. 10 d, 0 to 100 scale where 0 is no effect and 100 is complete control; for pest or weed control at 500 g/ha: 500 g ai/ha, 0 to 100 scale, 0 = no effect, 100 = complete control
Procedure, shortened: as §1

[6] = tested on: pigweed (Amaranthus retroflexus); assay: Test A preemergence; details: Amaranthus retroflexus, pre-emergence, 240 h, preemergence, read-out: Plant response rating, Pigweed; for pest or weed control at 125 g/ha: 125 g ai/ha, visual rating after approx. 10 d, 0 to 100 scale where 0 is no effect and 100 is complete control; for pest or weed control at 500 g/ha: 500 g ai/ha, 0 to 100 scale, 0 = no effect, 100 = complete control
[7] = tested on: barnyardgrass (Echinochloa crus-galli); assay: Test A preemergence; details: Echinochloa crus-galli, pre-emergence, 240 h, preemergence, read-out: Plant response rating, Barnyardgrass; for pest or weed control at 125 g/ha: 125 g ai/ha, visual rating after approx. 10 d, 0 to 100 scale where 0 is no effect and 100 is complete control; for pest or weed control at 500 g/ha: 500 g ai/ha, 0 to 100 scale, 0 = no effect, 100 = complete control
Procedure, shortened: as §1

[8] = tested on: ryegrass, Italian (Italian ryegrass, Lolium multiflorum); assay: Test A preemergence; details: Lolium multiflorum, pre-emergence, 240 h, preemergence, read-out: Plant response rating, Ryegrass, Italian; for pest or weed control at 125 g/ha: 125 g ai/ha, visual rating after approx. 10 d, 0 to 100 scale where 0 is no effect and 100 is complete control; for pest or weed control at 500 g/ha: 500 g ai/ha, 0 to 100 scale, 0 = no effect, 100 = complete control
Procedure, shortened: as §1

[9] = tested on: giant foxtail (Setaria faberii); assay: Test A preemergence; details: Setaria faberi, pre-emergence, 240 h, preemergence, read-out: Plant response rating, Foxtail, Giant; for pest or weed control at 125 g/ha: 125 g ai/ha, visual rating after approx. 10 d, 0 to 100 scale where 0 is no effect and 100 is complete control; for pest or weed control at 500 g/ha: 500 g ai/ha, 0 to 100 scale, 0 = no effect, 100 = complete control
Procedure, shortened: as §1

rice (Oryra sativa) = assay: Test B flooded paddy test; details: Oryza sativa, Flood, 250 g ai/ha; scale of 0 to 100 where 0 is no effect and 100 is complete control; read-out: Rice plant response rating
Procedure, shortened: (§2)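 Response scored visually against untreated controls, 0 = no effect and 100 = complete control, 13–15 d after treatment in the greenhouse. Compounds added to paddy water held 3 cm above soil surface. Treatment given at 2-leaf stage.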

[10] = tested on: ducksalad (Heteranthera limosa); assay: Test B flooded paddy test; details: Heteranthera limosa, Flood, 250 g ai/ha; scale of 0 to 100 where 0 is no effect and 100 is complete control; read-out: Ducksalad plant response rating
Procedure, shortened: as §2

[11] = tested on: sedge, umbrella (small-flower umbrella sedge, Cyperus difformis); assay: Test B flooded paddy test; details: Cyperus difformis, Flood, 250 g ai/ha; scale of 0 to 100 where 0 is no effect and 100 is complete control; read-out: Sedge, Umbrella plant response rating
Procedure, shortened: as §2

[12] = tested on: barnyardgrass (Echinochloa crus-galli); assay: Test B flooded paddy test; details: Echinochloa crus-galli, Flood, 250 g ai/ha; scale of 0 to 100 where 0 is no effect and 100 is complete control; read-out: Barnyardgrass plant response rating
Procedure, shortened: as §2

SMILES	pest or weed control at 125 g/ha [1] [%]	plant injury at 125 g/ha [2] [%]	pest or weed control at 125 g/ha [3] [%]	pest or weed control at 125 g/ha [4] [%]	pest or weed control at 125 g/ha [5] [%]	pest or weed control at 500 g/ha [5] [%]	pest or weed control at 125 g/ha (Kochia (Kochia scoparia)) [%]	pest or weed control at 500 g/ha (Kochia (Kochia scoparia)) [%]	pest or weed control at 125 g/ha [6] [%]	pest or weed control at 500 g/ha [6] [%]	pest or weed control at 125 g/ha [7] [%]	pest or weed control at 500 g/ha [7] [%]	pest or weed control at 125 g/ha [8] [%]	pest or weed control at 500 g/ha [8] [%]	pest or weed control at 125 g/ha [9] [%]	pest or weed control at 500 g/ha [9] [%]	pest or weed control at 250 g/ha (rice (Oryra sativa)) [%]	pest or weed control at 250 g/ha [10] [%]	pest or weed control at 250 g/ha [11] [%]	pest or weed control at 250 g/ha [12] [%]
Cc1cc([C@H]2CNC(=O)[C@@H]2C(=O)Nc2ccccc2F)ccc1F [Compound 717]	40	0	90	30	0	40	0	60	0	30	90	90	0	30	80	90	0	100	0	60
Cc1cc([C@H]2CNC(=O)[C@@H]2C(=O)Nc2ccc(F)cc2F)ccc1F [Compound 718]	40	0	70	30	0	40	0	60	0	0	90	90	30	30	70	90	0	100	0	40
Cc1cc([C@H]2CN(C)C(=O)[C@@H]2C(=O)Nc2ccc(F)c(F)c2F)ccc1F [Compound 719]	60	80	90	90	20	70	70	80	50	90	90	90	70	90	90	90	0	100	0	85
